# Where “and” joins values, the source holds several entries; their conditions need not be identical. Identical values can stand only once. Marks after values point to notes of the source that are not given here.
# Legend:
# bone marrow cells = test: Ex vivo analysis of ALDH activity in murine lymphocytes (ALDEFLUOR); type: cell-based, mouse
# Method: Bone marrow cells were collected from 12-week old […] mice via tibia and femur flush with PBS and were passed through a 100-μm cell sieve. Thymocytes and spleenocytes were isolated from corresponding tissues and were isolated by physical disruption against a 100 μm cell sieve. Cells were washed via centrifugation/resuspension and then suspended at 10^7 cells/mL. The ALDEFLUOR™ assay with or without MBE1 was then conducted on these cells as described except with the addition of either […] (Biolegend #100308), anti-CD11c (BD Pharmigen #561119), anti-CD45 (eBioscience 30-F11), or anti-CD317 (Biolegend 129c1) during the incubation period at 1:200.
# Similar results (not shown) were obtained in other populations tested, including CD45-positive and CD3e-positive (CD45+CD3e+) and CD11c-positive and CD317-positive (CD11+CD317+).
# SUM159-M1-p44 cells = test: Lung metastasis xenograft, SUM159-M1-p44 cells by tail-vein injection, BLI; type: in vivo, mouse; conditions: three doses of 50 mg/kg in combination with 25 mg/kg paclitaxel, days 17, 19 and 21
# Method: In another xenograft experiment, mice were injected with SUM159-M1-p44 cells via tail-vein injection, as described above, and randomized following injection. Metastatic burden was imaged on day 16 via intravital imaging. Mice were then treated with paclitaxel (25 mg/kg) and either vehicle or MBE1.5 (50 mg/kg) on days 17, 19 and 21. Lung metastatic burden was then imaged on day 22. Signals were normalized to day 16.
# MDA-MB-468 cells = test: Primary tumor xenograft, MDA-MB-468 cells in mammary fat pad; type: in vivo; conditions: 12 days
# Method: In yet another xenograft experiment, mice were injected with MDA-MB-468 cells via mammary fat pad, and were randomized following injection. Mice were treated with MBE1.5 (25 mg/kg daily, n=6) or vehicle (n=12), and paclitaxel (12.5 mg/kg every other day) for 12 days. Primary tumor measurements were taken by caliper between each treatment group.
# [1] = test system: Sum-159-M1a-Aldh1a3 cells; test: Lung metastasis xenograft, Sum-159-M1a-Aldh1a3 cells by tail-vein injection; type: in vivo, mouse; conditions: 25 mg/kg daily with paclitaxel 12.5 mg/kg every other day, 12 days
# Method: In another xenograft experiment, mice were injected with Sum-159-M1a-Aldh1a3 cells via tail-vein injection, and were randomized following injection. Mice were treated with MBE1.5 (25 mg/kg daily) or vehicle, and paclitaxel (12.5 mg/kg every other day) for twelve days. Lung metastasis progression was tracked by intravital bioluminescence.
# [2] = Plasma pharmacokinetics in mice by LC/MS/MS; type: in vivo, mouse; conditions: for half-life / AUC(0-inf) / Clearance: mice, dose 25 mg/kg; for AUC(0-inf): noncompartment model
# Method: Pharmacokinetic experiments were performed on 16-week old C57BL6 male mice. Mice were administered MBE1.5 (15% DMSO, 5% Kolliphor EL, 80% PBS) via IP injection. Blood was collected by terminal cardiac puncture at 15 minutes, 30 minutes, 1 hour, 3 hours, and 24 hours post-injection. Serum was obtained by blood separation via centrifugation at 16200 RCF for 1 min. Tissues were then collected following exsanguination. Serum and tissues were rapidly frozen in liquid nitrogen and submitted for pharmacokinetic evaluation.
# Plasma MBE1.5 concentration was measured with LC/MS/MS assay in mice PK studies.
# Chemicals: MBE1.5 and MBE2.0 were supplied as stocks (1 mg/mL) in MeOH with 1% DMSO. MBE2.0 was used as internal standard. HPLC grade acetonitrile and water were purchased from J.T. Baker (Center Valley, PA). The mouse plasma was purchased from Innovative Research (Novi, MI) for the preparation of plasma calibration standards.
# Preparation of standard solution: MBE1.5 stock was diluted in control mice plasma to obtain calibration range from 8.2 ng/mL to 18 μg/mL. 1 μg/mL MBE2.0 in methanol was used as a working internal standard (IS).
# Sample preparation: The plasma standard and mouse plasma samples (204) were spiked with 54 μL IS and deproteinized with 1204 acetonitrile and methanol (v/v 5:1). After centrifugation at 13000 rpm for 15 minutes, 254 of the supernatant was analyzed by LC-MS.
# Liquid Chromatographic/Mass spectrometry: Quantitation of MBE1.5 was performed using TSQ Quantum triple quadruple mass spectrometer equipped with an API electrospray ionization (ESI) source, a Surveyor MS pump, a Surveyor Autosampler, with Xcalibur data acquisition software (ThermoElectron, San Jose, CA, USA).
# LC conditions were as follows: mobile phase A: aqueous solution (0.1% formic acid); mobile phase B: acetonitrile (0.1% formic acid); flow rate 500 μL/min; gradient elution, 0 to 1 minute, 60% A; 1 to 2.5 minutes, 60% to 20% A; 2.5 to 7.0 minutes, 0% A, 7.0 to 9.0 minutes 0% A, 9.0 to 11.0 minutes, 0% to 60% A; and column: Luna® C18, 150×4.6 mm, 5 μm (Phenomenex, Torrance, CA). The retention times for MBE1.5 and IS were 6.3 minutes and 6.6 minutes, respectively.
# MS/MS conditions were as follows: in single reaction monitoring mode, m/z 313.2/178.2 (MBE1.5), m/z 281.2/119.1 (MBE2.0, IS); ion spray voltage, 4500 v; capillary temperature 350° C.; sheath gas pressure 20 arbitrary units; Aux gas pressure 50 arbitrary units; collision pressure 1.5 arbitrary units. The collision energy and tube lens were optimized for each compound.
# Calculation: Plasma calibration standards were used for the quantitation of MBE in plasma samples. The log linear regression was used for calibration curve to determine the concentration in plasma samples.
# Preliminary PK data was analyzed using noncompartment model by Winnolin 2.0.
# [3] = male, C57BL6, mouse, plasma, ip, 25 mg/kg, i.p., calculation: time point to 3 hr
# [4] = male, C57BL6, mouse, plasma, ip, 25 mg/kg, i.p., calculation: time point to 24 hr
structure (smiles),measurement,setting,value
"CCc1ccccc1C(=O)Nc1cc2c(cc1F)NC(=O)CC2 [MBE1.5, 2-ethyl-N-(7-fluoro-2-oxo-1,2,3,4-tetrahydroquinolin-6-yl)benzamide]",effect on ALDEFLUOR activity of CD11c-positive bone marrow cells (FIG. 4B),bone marrow cells; murine bone marrow,not affected
same,effect on ALDEFLUOR activity of CD45-positive bone marrow cells (FIG. 4A),bone marrow cells; murine bone marrow,not affected
same,"effect on ALDEFLUOR activity of all populations tested (incl. CD45+CD3e+, CD11+CD317+)",bone marrow cells; murine cells,not affected
same,lung metastasis by BLI (FIG. 14),SUM159-M1-p44 cells,caused regression of established metastatic disease
same,complete tumor elimination,MDA-MB-468 cells; 25 mg/kg daily (n=6) with paclitaxel 12.5 mg/kg every other day,tumors of two mice in the MBE1.5 treatment group were completely eliminated
same,"gross toxicity, body mass (FIG. 15A)",MDA-MB-468 cells; 25 mg/kg daily with paclitaxel 12.5 mg/kg every other day,no gross toxicity
same,tumor volume (FIG. 15B),"MDA-MB-468 cells; 25 mg/kg daily with paclitaxel 12.5 mg/kg every other day, MDA-MB-468 primary tumors",caused regression of primary breast tumors
same,"mouse survival, Kaplan-Meier (FIG. 16B)",[1],extended survival in mice with late-stage established breast cancer lung metastasis
same,"Concentration in mouse plasma, individual mice","[2]; Time 0 hr, mice #1-#3, LOD 8.2 ng/mL",<LOD
same,"Concentration in mouse plasma, individual mice","[2]; Time 0.5 hr, i.p., mice #1-#3",6932 ng/mL and 3411 ng/mL and 4650 ng/mL
same,"Concentration in mouse plasma, individual mice","[2]; Time 1 hr, i.p., mice #1-#3",2842 ng/mL and 6295 ng/mL and 2815 ng/mL
same,"Concentration in mouse plasma, individual mice","[2]; Time 3 hr, i.p., mice #1-#3",1704 ng/mL and 3447 ng/mL and 849 ng/mL
same,"Concentration in mouse plasma, individual mice","[2]; Time 24 hr, i.p., mice #1-#3, LOD 8.2 ng/mL",<LOD
same,"Concentration in mouse plasma, individual mice, forced to calculate","[2]; Time 24 hr, i.p., mice #1-#3, integrated peak area less than LOD",0.002* μg/ml and 0.006* μg/ml and 0.005* μg/ml
same,"Concentration in mouse plasma, Mean","[2]; Time 24 hr, i.p., LOD 8.2 ng/mL",<LOD
same,concentration at 0.5 h,"[2]; male, C57BL6, mouse, plasma, ip, 25 mg/kg, Time 0.5 hr",5000 ng/mL
same,concentration at 1 h,"[2]; male, C57BL6, mouse, plasma, ip, 25 mg/kg, Time 1 hr",3980 ng/mL
same,concentration at 3 h,"[2]; male, C57BL6, mouse, plasma, ip, 25 mg/kg, Time 3 hr",2000 ng/mL
same,concentration at 24 h,"[2]; male, C57BL6, mouse, plasma, ip, 25 mg/kg, Time 24 hr, i.p., integrated peak area less than LOD, read-out: Concentration in mouse plasma, Mean, forced to calculate",4 ng/mL
same,half-life,[2]; [3],1.9 h
same,AUC(0-inf),[2]; [3],15700 ng·h/mL
same,half-life,[2]; [4],2.32 h
same,AUC(0-inf),[2]; [4],16900 ng·h/mL
same,Clearance,"[2]; i.p., calculation: time point to 3 hr",39.87 mL/h
same,Clearance,"[2]; i.p., calculation: time point to 24 hr",36.96 mL/h
